Test results taken from patent publication US20200038641A1, “DRUG DELIVERY DEVICE WITH REMOVABLE PODS AND RELATED PODS, METHODS AND SYSTEMS” (priority 2017, published 2020).
Converted amounts (≈) assume the structure as drawn. Read-outs that look alike come from different tables or passages of the source.

What was measured:
[1] = women, after 7 days of IVR use
From the text: The trial consisted of an open-label, crossover design where six participants sequentially used a TDF pod-IVR for seven days followed by a TDF-FTC pod-IVR, with a washout period of at least 14 days between each treatment period. Women who were clinically deemed eligible returned to the clinic for IVR insertion visit (Visit 1, TDF IVR; Visit 5, TDF-FTC IVR) after cessation of menses. Women returned for Visit 2 (TDF IVR) or Visit 6 (TDF-FTC IVR) on Day 2 (±1 d) after IVR insertion and for Visit 3 (TDF IVR) or Visit 7 (TDF-FTC IVR) on Day 7 (±1 d) when the IVRs were removed. At Visit 3/7, vaginal biopsies were obtained, and the IVRs were collected. Tissue samples were ultimately reported as ng/mg or fmol/mg, respectively, following normalization to net biopsy or Dacron swab weight.

[2] = cited from earlier work
[3] = sheep, in vivo
Procedure: FIG. 15 illustrates a graph of cervicovaginal lavage concentration (median+SD) of estonogestrel (1510) and ethiny estradiol (1505) delivered simultaneously via combination pod IVRs over 28 days in sheep (n=3). Inverted triangles: estonogestrel; Diamonds: ethiny estradiol.
FIG. 15 illustrates a graph of ETG-EE release: ETG (1510); EE (1505). The pod-in-rings for this example delivered etonogestrel (ETG) and […]. The silicone pod IVRs contained two pods of EE at 16 mg API per pod (32 mg drug per ring) and ETG at 10 mg API per pod (20 mg drug per ring). Median ETG CVL levels (13±6.9 nM) were 8 times higher than the corresponding […] levels (1.6±1.2 nM), in agreement with the relative daily release rates of ETG and EE from the NuvaRing® (120 μg day^−1 and 15 μg day^−1, respectively). Plasma levels were not measured, the preliminary results should imply a match for in vivo and in vitro release compared to Nuvaring®.

[4] = systemic delivery; cited from earlier work
HSV = assay: Inhibition of HSV infection by acyclovir, dose-response curve; assay type: cell-based; conditions: drug added at the time of HSV challenge and in the overlay medium; read-out: concentration of acyclovir that inhibits infection by 50% (IC50)
Procedure: The concentration of acyclovir that inhibits infection by 50% (IC50) when drug was added at the time of HSV challenge and in the overlay medium was ˜700 ng/mL.
In FIG. 16, panel A (1605), the percentage inhibition of HSV infection was determined in the presence of increasing concentrations of acyclovir (ACV). In panel B (1610) the percentage inhibition of HSV infection was determined in the presence of the indicated CVL sample or control fluid. Results are means from duplicate wells and each participant is represented by a different symbol (1615); the horizontal lines (1620) indicate the medians for the groups. In panel C (1625), the relationship between drug levels and percentage inhibition was determined by the Spearman correlation coefficient. Filled circles (1630) represent CVL samples obtained 24 h after oral VCV dosing, and open circles (1635) are CVL samples obtained 7 days after ring insertion.

[5] = beyond 190° C.; cited from earlier work

CC(Cn1cnc2c(N)ncnc21)OCP(=O)(O)OP(=O)(O)OP(=O)(O)O (stereo in doubt) [TFV-DP, Tenofovir diphosphate]
vaginal biopsy homogenate tissue levels [1]: high enough for PrEP action

C#C[C@]1(O)CC[C@H]2[C@@H]3CCc4cc(O)ccc4[C@H]3CC[C@@]21C [EE, Ethinyl Estradiol]
solubility in water [2]: highly hydrophobic

C#C[C@]1(O)CC[C@H]2[C@@H]3CCC4=CC(=O)CC[C@@H]4[C@H]3C(=C)C[C@@]21CC [ETG, Etonogestrel]
ETG CVL levels relative to estradiol (E2) levels [3]: 8 times
solubility in water [2]: highly hydrophobic

Nc1nc(=O)n([C@@H]2CS[C@H](CO)O2)cc1F [FTC, Emtricitabine]
vaginal biopsy homogenate tissue levels [1]: high enough for PrEP action

Cc1nc(N(C)C(=O)Cc2ccc(-c3ccccn3)cc2)sc1S(N)(=O)=O [Pritelivir]
solubility in water [2]: insoluble in water
solubility in water ([2]; listed as pritelivir): low solubility
toxicity when delivered systemically [4]: significant toxicity

Nc1nc2c(ncn2COCCO)c(=O)[nH]1 [acyclovir]
IC50 (HSV): ~0.7 µg/mL (≈ 3.11 µM)
solubility in water [2]: extremely water soluble
thermal stability [5]: higher thermal stability even beyond 190 °C

CCNC(=O)[C@@H]1CCCN1C(=O)[C@H](CCCNC(=N)N)NC(=O)[C@H](CC(C)C)NC(=O)[C@@H](CC(C)C)NC(=O)[C@H](Cc1ccc(O)cc1)NC(=O)[C@H](CO)NC(=O)[C@H](Cc1c[nH]c2ccccc12)NC(=O)[C@H](Cc1c[nH]cn1)NC(=O)[C@@H]1CCC(=O)N1 [leuprolide]
thermal stability [5]: not heat-stable beyond 190 °C

C[C@@H](O)[C@@H]1NC(=O)[C@H](CCCCN)NC(=O)[C@@H](Cc2c[nH]c3ccccc23)NC(=O)[C@H](Cc2ccccc2)NC(=O)[C@@H](NC(=O)[C@H](N)Cc2ccccc2)CSSC[C@@H](C(=O)N[C@H](CO)[C@@H](C)O)NC1=O [octreotide]
solubility in water [2]: very soluble
